Assay results: patent publication US8153787B2 (priority 2005, dated 2012)
Values after ≈ are worked out from the molar mass of the structure shown. Like-named read-outs stand apart in the source and are kept apart here.

How the values were obtained:
[1] = tested on: herpes simplex virus type 2 (HSV-2); test: microbe, parasite or virus in culture; assay type: cell-based; details: Human alphaherpesvirus 2, HEL, read-out: EC50 HSV-2 (G strain)
[2] = tested on: herpes simplex virus type 1 (HSV-1); test: microbe, parasite or virus in culture; assay type: cell-based; details: Human alphaherpesvirus 1, HEL, read-out: EC50 HSV-1 (Kos strain)
[3] = tested on: Varicella-Zoster Virus (VZV); test: microbe, parasite or virus in culture; assay type: cell-based; details: Human alphaherpesvirus 3, HEL
Orf virus (NZ2) = test: microbe, parasite or virus in culture; assay type: cell-based; details: Orf virus, HEL, read-out: EC50 Orf virus NZ2
HSB-2 cells = details: human
MOLT-3 cells = details: human
in vitro [4] = details: African green monkey
[5] = tested on: primate polyomavirus (SV40); test: microbe, parasite or virus in culture; assay type: cell-based, simian polyomavirus SV40; details: for EC50: Polyomavirus sp., BSC-1, in Primates
in vitro [6] = details: human
murine polyomavirus = test: microbe, parasite or virus in culture; assay type: cell-based; details: for EC50: Alphapolyomavirus muris, UC1, UC1B
[7] = tested on: Human Cytomegalovirus (HCMV); test: microbe, parasite or virus in culture; assay type: cell-based
in vitro [8] = details: mouse
in vitro [9] = details: human; remark: listed apart in the source
Cowpox virus (Brighton) = test: microbe, parasite or virus in culture; assay type: cell-based; details: Cowpox virus, HEL, read-out: EC50 Cowpox virus Brighton
Vaccinia virus = test: organism not typed; assay type: cell-based; details: HEL
HEL cells = details: HEL cells, microscopy
[10] = read-out: EC50 VZV 07/1 strain (HEL cells)
[11] = read-out: EC50 VZV OKA strain (HEL cells)
[12] = read-out: antiviral activity (EC50) SV40 PML-1 strain EK
[13] = read-out: antiviral activity (EC50) SV40 PML-2 strain DAR
[14] = read-out: antiviral activity (EC50) SV40 strain A2895
[15] = read-out: antiviral activity (EC50) 2PTA2
[16] = read-out: antiviral activity (EC50) MN/RDE Toronto
[17] = Human betaherpesvirus 5, AD169, HEL, read-out: EC50 HCMV AD-169 strain (HEL cells)
[18] = Human betaherpesvirus 5, HEL, read-out: EC50 HCMV Davis strain (HEL cells)
[19] = read-out: EC50 Vaccinia Virus Lister
[20] = Orthopoxvirus vaccinia, read-out: EC50 Vaccinia Virus Copenhagen
[21] = Orthopoxvirus vaccinia, read-out: EC50 Vaccinia Virus Lederle
[22] = Orthopoxvirus vaccinia, read-out: EC50 Vaccinia Virus WR
[23] = read-out: antiviral activity (EC50) LID-1
[24] = read-out: antiviral activity (EC50) PTA
[25] = read-out: EC50 VZV YS strain (HEL cells)
[26] = read-out: EC50 VZV YS-R strain (HEL cells)

SMILES	EC50 [3, 10]	EC50 [3, 11]	EC50 (Orf virus (NZ2))	CC50 (in vitro [4])	selectivity index SV40 PML-1 strain EK [5]	selectivity index SV40 PML-2 strain DAR [5]	selectivity index SV40 strain A2895 [5]	EC50 [5, 12]	EC50 [5, 13]	EC50 [5, 14]	selectivity index 2PTA2 (murine polyomavirus)	selectivity index MN/RDE Toronto (murine polyomavirus)	EC50 (murine polyomavirus; [15])	EC50 (murine polyomavirus; [16])	EC50 [7, 17]	EC50 [7, 18]	CC50 (in vitro [8])	EC50 (Cowpox virus (Brighton))	EC50 (Vaccinia virus; [19])	EC50 (Vaccinia virus; [20])	other results
Nc1nc2c(ncn2COCCO)c(=O)[nH]1 [Acyclovir, reference compound]																					EC50 [1]: 0.032 µg/mL (≈ 0.142 µM); EC50 [2]: 0.032 µg/mL (≈ 0.142 µM)
NC(=NC(=O)NC[C@@H](CO)OCP(=O)(O)O)NC=O.[Na] [Compound 3a, Sodium 3-formyl-2-{[(2S)-3-hydroxy-2-(phosphono-methoxy)propyl]carbamoyl}guanidine]	46 ng/mL	42 ng/mL	0.37 µg/mL	> 200 µg/mL	>20	>24	>34	10 µg/mL	8.24 µg/mL	5.92 µg/mL	>13	>26	14.8 µg/mL	7.57 µg/mL	100 ng/mL	120 ng/mL	> 200 µg/mL	12.6 µg/mL	7.61 µg/mL	5.84 µg/mL	Toxicity MCC (microscopy), HSB-2 cells (HSB-2 cells): >200 µg/mL; Toxicity MCC (microscopy), MOLT-3 cells (MOLT-3 cells): 200 µg/mL; CC50 (in vitro [6]): > 100 µg/mL; CC50 at 3 days (in vitro [9]): > 50 µg/mL; EC50 (Vaccinia virus; [21]): 7.97 µg/mL; EC50 (Vaccinia virus; [22]): 6.34 µg/mL; Toxicity MCC (microscop) (HEL cells): >100 µg/mL
NC(N)=NC(=O)NC[C@@H](CO)OCP(=O)(O)O [Compound 10, 2-{[(2S)-3-Hydroxy-2-(Phosphonomethoxy)propyl]carbamoyl}guanidine]				> 200 µg/mL	1	1	1	> 200 µg/mL	> 200 µg/mL	> 200 µg/mL	1	1	> 200 µg/mL	> 200 µg/mL			> 200 µg/mL				Toxicity MCC (microscopy), HSB-2 cells (HSB-2 cells): >200 µg/mL; selectivity index LID-1 (murine polyomavirus): 1; selectivity index PTA (murine polyomavirus): 1; EC50 (murine polyomavirus; [23]): > 200 µg/mL; EC50 (murine polyomavirus; [24]): > 200 µg/mL
Nc1ncn(C[C@H]2COP(=O)(O)CO2)c(=O)n1 [Compound 11, 1-{[(5S)-2-Hydroxy-2-oxido-1,4,2-dioxaphosphinan-5-yl]methyl}-5-azacytosine]	50 ng/mL (≈ 0.191 µM)	80 ng/mL (≈ 0.305 µM)	0.09 µg/mL (≈ 0.343 µM)	36.4 µg/mL (≈ 139 µM)	8	7	8	4.6 µg/mL (≈ 17.5 µM)	5.05 µg/mL (≈ 19.3 µM)	4.39 µg/mL (≈ 16.7 µM)	13	17	4.39 µg/mL (≈ 16.7 µM)	3.43 µg/mL (≈ 13.1 µM)	93 ng/mL (≈ 0.355 µM)	61 ng/mL (≈ 0.233 µM)	58.4 µg/mL (≈ 223 µM)	5.64 µg/mL (≈ 21.5 µM)	1.38 µg/mL (≈ 5.26 µM)	1.76 µg/mL (≈ 6.71 µM)	EC50 [1]: 0.58 µg/mL (≈ 2.21 µM); EC50 [2]: 0.017 µg/mL (≈ 0.0648 µM); selectivity index LID-1 (murine polyomavirus): 7; selectivity index PTA (murine polyomavirus): 7; EC50 (murine polyomavirus; [23]): 8.05 µg/mL (≈ 30.7 µM); EC50 (murine polyomavirus; [24]): 8.59 µg/mL (≈ 32.8 µM); CC50 (in vitro [9]): > 50 µg/mL; EC50 (Vaccinia virus; [21]): 3.1 µg/mL (≈ 11.8 µM); EC50 (Vaccinia virus; [22]): 2.08 µg/mL (≈ 7.93 µM)
CCCCCCCCCCCCCCCCOCCOP1(=O)CO[C@@H](Cn2cnc(N)nc2=O)CO1 (stereo partly drawn) [Compound 12, hexadecyloxyethyl ester of 1-{[(5S)-2-Hydroxy-2-oxido-1,4,2-dioxaphosphinan-5-yl]methyl}-5-azacytosine]	< 0.02 ng/mL	< 0.02 ng/mL	< 0.032 µg/mL	7.1 µg/mL (≈ 13.4 µM)	57.6	38.7	44.5	0.15 µg/mL (≈ 0.283 µM)	0.18 µg/mL (≈ 0.339 µM)	0.16 µg/mL (≈ 0.302 µM)	33.8	34.9	0.3 µg/mL (≈ 0.565 µM)	0.29 µg/mL (≈ 0.547 µM)	< 0.02 ng/mL	< 0.02 ng/mL	10 µg/mL (≈ 18.8 µM)	< 0.032 µg/mL	< 0.032 µg/mL	< 0.032 µg/mL	EC50 [3, 25]: < 0.02 ng/mL; EC50 [3, 26]: < 0.02 ng/mL; EC50 [1]: 0.36 µg/mL (≈ 0.678 µM); EC50 [2]: 0.072 µg/mL (≈ 0.136 µM); selectivity index LID-1 (murine polyomavirus): 21.3; selectivity index PTA (murine polyomavirus): 35.6; EC50 (murine polyomavirus; [23]): 0.47 µg/mL (≈ 0.886 µM); EC50 (murine polyomavirus; [24]): 0.28 µg/mL (≈ 0.528 µM); CC50 (in vitro [9]): 6 µg/mL (≈ 11.3 µM); EC50 (Vaccinia virus; [21]): < 0.032 µg/mL; EC50 (Vaccinia virus; [22]): 0.072 µg/mL (≈ 0.136 µM)
CCCCCCCCCCCCCCCCCCOP1(=O)CO[C@@H](Cn2cnc(N)nc2=O)CO1 (stereo partly drawn) [Compound 15, octadecyl ester of 1-{[(5S)-2-hydroxy-2-oxido-1,4,2-dioxaphosphinan-5-yl]methyl}-5-azacytosine]		63 ng/mL (≈ 0.122 µM)													3.7 ng/mL (≈ 0.00719 µM)	1.4 ng/mL (≈ 0.00272 µM)					CC50 (in vitro [9]): > 100 µg/mL
Nc1cnn(C[C@@H](CO)OCP(=O)(O)O)c(=O)n1 [HPMP-6-azaC analogue, (S)-1-[3-hydroxy-2-(phosphonomethoxy)propyl]-6-azacytosine]	18400 ng/mL (≈ 65.7 µM)	38200 ng/mL (≈ 136 µM)	≥ 63.8 µg/mL												30000 ng/mL (≈ 107 µM)	37300 ng/mL (≈ 133 µM)		> 100 µg/mL	≥ 79.3 µg/mL	> 100 µg/mL	EC50 [3, 25]: 42000 ng/mL (≈ 150 µM); EC50 [3, 26]: 17000 ng/mL (≈ 60.7 µM); CC50 (in vitro [9]): > 50 µg/mL; EC50 (Vaccinia virus; [21]): ≥ 81.6 µg/mL; EC50 (Vaccinia virus; [22]): > 100 µg/mL
